How the values were obtained:
human TGR5 receptor = target: T1, human TGR5 receptor (Homo sapiens, UniProt Q8TDU6); test: Human TGR5 cAMP production assay (hTGR5-CHO cells, DiscoveRx cAMP XS+ kit); format: cell-based; conditions: luminescent cAMP assay, read-out: Human TGR5 Lum. cAMP Activity (EC50)
T1 construct: host or cells: CHO-K1 (hTGR5-CHO)
T1 sequence (Q8TDU6 1-330): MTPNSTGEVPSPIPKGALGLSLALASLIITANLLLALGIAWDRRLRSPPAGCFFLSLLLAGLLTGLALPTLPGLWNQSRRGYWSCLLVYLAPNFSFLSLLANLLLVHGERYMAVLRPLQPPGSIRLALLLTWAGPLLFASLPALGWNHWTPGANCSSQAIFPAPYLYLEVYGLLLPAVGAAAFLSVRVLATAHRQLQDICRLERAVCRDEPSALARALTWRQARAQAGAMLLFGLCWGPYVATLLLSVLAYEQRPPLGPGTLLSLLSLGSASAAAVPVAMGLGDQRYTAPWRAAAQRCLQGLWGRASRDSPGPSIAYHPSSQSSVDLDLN
Procedure, shortened: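 CHO-K1 cells stably expressing hTGR5, in PBS with IBMX and cAMP antibody, treated with half-log compound dilutions for 1 h at room temperature. cAMP measured by enzyme-fragment complementation luminescence after overnight detection; EC50 values reported.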

mouse TGR5 receptor = target: T2, mouse TGR5 receptor (Mus musculus, UniProt Q80SS6); test: Mouse TGR5 luminescent cAMP production assay (HEK293-EBNA cells, DiscoveRx cAMP XS+ kit); format: cell-based; conditions: HEK293-EBNA cells overexpressing mouse TGR5, luminescent cAMP assay; read-out: Mouse TGR5 Lum. cAMP Activity (EC50)
T2 construct: host or cells: HEK293-EBNA (293 c18, ATCC CRL10852)
T2 sequence (Q80SS6 1-329): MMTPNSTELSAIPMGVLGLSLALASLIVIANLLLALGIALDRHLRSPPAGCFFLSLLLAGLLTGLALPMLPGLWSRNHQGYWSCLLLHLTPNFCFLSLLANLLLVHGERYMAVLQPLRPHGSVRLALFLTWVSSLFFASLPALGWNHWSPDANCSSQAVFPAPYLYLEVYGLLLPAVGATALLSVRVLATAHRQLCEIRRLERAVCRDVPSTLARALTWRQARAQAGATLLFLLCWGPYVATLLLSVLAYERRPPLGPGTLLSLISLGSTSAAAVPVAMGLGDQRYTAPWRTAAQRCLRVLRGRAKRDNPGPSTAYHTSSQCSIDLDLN
Method: Mouse TGR5 cAMP Production Assay
Compounds of the present invention were evaluated for their ability to induce cAMP production in HEK-EBNA cells overexpressing the mouse TGR5 receptor. Human embryonic kidney cells (HEK293-EBNA) stably expressing mouse TGR5 receptor were established using the following procedure. Specifically, a commercially obtained gene encoding mouse TGR5 (accession number BC116914) from Thermo Scientific (Waltham, Mass.) was cloned into an episomal expression vector. The resulting expression plasmid was then transfected into 293 c18 (ATCC® CRL10852™) cells, which express the Epstein-Barr virus nuclear antigen EBNA1 and can support the replication of episomal vectors. Selection for the plasmid was maintained with Hygromycin B. Cells were cultured and maintained in DMEM (Sigma; cat #6429) supplemented with 10% Fetal Bovine Serum, 1% penicillin/streptomycin, 2 mM L-alanine L-glutamine (GlutaMax), and 250 μg/mL Hygromycin.
We developed two cAMP production assays.
(i) Luminescent cAMP Production Assay
In this first cAMP production assay, the cAMP production was measured using DiscoveRx's cAMP XS+ kit following the manufacturer's recommended protocol. Briefly, HEK293-EBNA cells stably overexpressing mouse TGR5 were harvested using non-enzymatic cell dissociation buffer (Sigma-Aldrich, St. Louis, Mo.), spun down, then resuspended in serum-free DMEM with 500 μM IBMX at a density of 1.25×10^6 cells/mL. 500 μL of cAMP antibody solution was added to 500 μL of cell suspension and incubated at room temperature for 20 min.
Test compounds were serially diluted (half-log dilutions) in DMSO and then further diluted 1:50 in PBS, 10 mM HEPES buffer. 2 μL of serially diluted compound was added to a 384-well low volume plate (Greiner cat #784075) and centrifuged briefly. 2 μl of the cell/cAMP antibody mixture was then added to each compound-containing well and allowed to incubate at room temperature for one (1) hour. Following incubation, the XS+ kits' ED/Lysis/CL Substrate Working Solution was prepared following the manufacturer's recommended protocol and 4 μL was added to each well of the plate. The plate was then incubated for one (1) hour at room temperature. Following incubation, 4 μL of (Enzyme Acceptor) EA reagent was added to the plate and allowed to incubate overnight at room temperature. Luminescent signal was then detected using the Viewlux instrument (PerkinElmer, Waltham, Mass.).
In Table 52, EC50 values for both human and mouse cells were determined according to the TGR5 cAMP assays described above. […]

SMILES	EC50 (human TGR5 receptor) [nM]	EC50 (mouse TGR5 receptor) [nM]
N#Cc1ccc(CCNC(=O)[C@@H]2CCN2c2cc(-c3ccccn3)nc(C(F)(F)F)n2)cc1 [Compound 306, (S)-N-(4-cyanophenethyl)-1-(6-(pyridin-2-yl)-2-(trifluoromethyl)pyrimidin-4-yl)azetidine-2-carboxamide]	100 to 999	100 to 999
N#Cc1ccc(CCNC(=O)[C@@H]2CCCN2c2cc(-c3ccc(OC(F)(F)F)cc3)nc(C(F)(F)F)n2)cc1 [Compound 150, (S)-N-(4-cyanophenethyl)-1-(6-(4-(trifluoromethoxy)phenyl)-2-(trifluoromethyl)pyrimidin-4-yl)pyrrolidine-2-carboxamide]	100 to 999	100 to 999
N#Cc1ccc(CCNC(=O)[C@@H]2CCN2c2cc(OC3CCOCC3)nc(C(F)(F)F)n2)cc1 [Compound 242, (S)—N-(4-cyanophenethyl)-1-(6-((tetrahydro-2H-pyran-4-yl)oxy)-2-(trifluoromethyl)pyrimidin-4-yl)azetidine-2-carboxamide]	100 to 999	< 100
CN(C)CCN1CCN(c2cc(N3CCC[C@@H](C(=O)NCCc4ccc(C#N)cc4)C3)nc(C(F)(F)F)n2)CC1 [Compound 317, (R)-N-(4-cyanophenethyl)-1-(6-(4-(2-(dimethylamino)ethyl)piperazin-1-yl)-2-(trifluoromethyl)pyrimidin-4-yl)piperidine-3-carboxamide]	100 to 999	100 to 999
O=C(NCCc1ccc(C(F)(F)F)cc1)[C@@H]1CCCN(c2cc(NC3CCOCC3)nc(C(F)(F)F)n2)C1 [Compound 326, (R)-1-(6-((tetrahydro-2H-pyran-4-yl)amino)-2-(trifluoromethyl)-pyrimidin-4-yl)-N-(4-(trifluoromethyl)phenethyl)piperidine-3-carboxamide]	100 to 999	< 100
N#Cc1ccc(CCNC(=O)[C@@H]2C[C@@H](O)CN2c2cc(N3CCC(CO)CC3)nc(C(F)(F)F)n2)cc1 [Compound 211, (2S,4R)-N-(4-cyanophenethyl)-4-hydroxy-1-(6-(4-(hydroxymethyl)piperidin-1-yl)-2-(trifluoromethyl)pyrimidin-4-yl)pyrrolidine-2-carboxamide]	100 to 999	100 to 999
COc1cc(-c2cc(N3CCC[C@H]3C(=O)NCCc3ccc(C#N)cc3)nc(C(F)(F)F)n2)ccn1 [Compound 160, (S)-N-(4-cyanophenethyl)-1-(6-(2-methoxypyridin-4-yl)-2-(trifluoromethyl)pyrimidin-4-yl)pyrrolidine-2-carboxamide]	1000 to 30000	< 100
N#Cc1ccc(CCNC(=O)[C@@H]2CCCN(c3cc(N4CCN(CCO)CC4)nc(C(F)(F)F)n3)C2)cc1 [Compound 313, (R)-N-(4-cyanophenethyl)-1-(6-(4-(2-hydroxyethyl)piperazin-1-yl)-2-(trifluoromethyl)pyrimidin-4-yl)piperidine-3-carboxamide]	100 to 999	100 to 999
COCC1CCN(c2cc(N3CC[C@H]3C(=O)NCCc3ccc(C#N)cc3)nc(C(F)(F)F)n2)CC1 [Compound 222, (S)-N-(4-cyanophenethyl)-1-(6-(4-(methoxymethyl)piperidin-1-yl)-2-(trifluoromethyl)pyrimidin-4-yl)azetidine-2-carboxamide]	< 100	100 to 999
N#Cc1ccc(CCNC(=O)[C@@H]2CCCN2c2cc(-c3csc(C(=O)O)c3)nc(C(F)(F)F)n2)cc1 [Compound 178, (S)-4-(6-(2-((4-cyanophenethyl)carbamoyl)pyrrolidin-1-yl)-2-(trifluoromethyl)pyrimidin-4-yl)thiophene-2-carboxylic acid]	1000 to 30000	< 100
O=C(NCCc1ccc(C(F)(F)F)cc1)[C@@H]1CCCN1c1cc(-c2ccncc2)nc(C(F)(F)F)n1 [Compound 140, (S)-1-(6-(pyridin-4-yl)-2-(trifluoromethyl)pyrimidin-4-yl)-N-(4-(trifluoromethyl)phenethyl)pyrrolidine-2-carboxamide]	100 to 999	100 to 999
N#Cc1ccc(CCNC(=O)[C@@H]2CCCN(c3cc(N4CCN(Cc5cccc6c5OCO6)CC4)nc(C(F)(F)F)n3)C2)cc1 [Compound 319, (R)-1-(6-(4-(benzo[d][1,3]dioxol-4-ylmethyl)piperazin-1-yl)-2-(trifluoromethyl)pyrimidin-4-yl)-N-(4-cyanophenethyl)piperidine-3-carboxamide]	100 to 999	100 to 999
CN(CC1CCN(c2cc(N3CCC[C@H]3C(=O)NCCc3ccc(C#N)cc3)nc(C(F)(F)F)n2)CC1)C(=O)OC(C)(C)C [Compound 20]	1000 to 30000	1000 to 30000
N#Cc1ccc(CCNC(=O)[C@@H]2CCN2c2cc(-c3ccncc3)nc(C(F)(F)F)n2)cc1 [Compound 303]	100 to 999	100 to 999
CC(=O)NCCNc1cc(N2CCC[C@@H](C(=O)NCCc3ccc(C(F)(F)F)cc3)C2)nc(C(F)(F)F)n1 [Compound 324, (R)-1-(6-((2-acetamidoethyl)amino)-2-(trifluoromethyl)pyrimidin-4-yl)-N-(4-(trifluoromethyl)phenethyl)piperidine-3-carboxamide]	1000 to 30000	100 to 999
CN(C)c1cc(N2CCC[C@@H](C(=O)NCCc3ccc(C(F)(F)F)cc3)C2)nc(C(F)(F)F)n1 [Compound 322, (R)-1-(6-(dimethylamino)-2-(trifluoromethyl)pyrimidin-4-yl)-N-(4-(trifluoromethyl)phenethyl)piperidine-3-carboxamide]	100 to 999	1000 to 30000
COCC(=O)N1CCN(c2cc(N3CCC[C@@H](C(=O)NCCc4ccc(C(F)(F)F)cc4)C3)nc(C(F)(F)F)n2)CC1 [Compound 337, (R)-1-(6-(4-(2-methoxyacetyl)piperazin-1-yl)-2-(trifluoromethyl)pyrimidin-4-yl)-N-(4-(trifluoromethyl)phenethyl)piperidine-3-carboxamide]	100 to 999	< 100
N#Cc1ccc(CCNC(=O)[C@@H]2CCCN2c2cc(-c3ccoc3)nc(C(F)(F)F)n2)cc1 [Compound 164, (S)-N-(4-cyanophenethyl)-1-(6-(furan-3-yl)-2-(trifluoromethyl)pyrimidin-4-yl)pyrrolidine-2-carboxamide]	1000 to 30000	100 to 999
O=C(NCCc1ccc(C(F)(F)F)cc1)[C@@H]1CCCN(c2cc(N3CCNCC3)nc(C(F)(F)F)n2)C1 [Compound 327, (R)-1-(6-(piperazin-1-yl)-2-(trifluoromethyl)pyrimidin-4-yl)-N-(4-(trifluoromethyl)phenethyl)piperidine-3-carboxamide]	1000 to 30000	100 to 999
CNc1cc(N2CCC[C@@H](C(=O)NCCc3ccc(C(F)(F)F)cc3)C2)nc(C(F)(F)F)n1 [Compound 321, (R)-1-(6-(methylamino)-2-(trifluoromethyl)pyrimidin-4-yl)-N-(4-(trifluoromethyl)phenethyl)piperidine-3-carboxamide]	100 to 999	100 to 999
N#Cc1ccc(CCNC(=O)[C@@H]2CCCN2c2cc(NCc3ccncc3)nc(C(F)(F)F)n2)cc1 [Compound 13]	100 to 999	< 100

From patent US10654834B2 (Venenum Biodesign, LLC, priority 2016, dated 2020)
